Among the data in BindingDB's records for doi:10.1016/s0960-894x(02)00084-7 (The University of Tokyo, 2002) are relative activity vs aspirin values, retold here.

Assay [1] in a line: Inhibitory activity (RA2) against Prostaglandin G/H synthase 2 was calculated relative to aspirin.
Assay [2] is described as follows: Inhibitory activity (RA1) against Prostaglandin G/H synthase 1 was calculated relative to aspirin.

As to `O=C1CCC(N2C(=O)c3ccccc3C2=O)C(=O)N1` (racemic) [(+/-)-thalidomide], the relative activity vs aspirin in assay [1] was 0.5; in assay [2], 0.37.

`Cc1cc(C)c(C)c(N2C(=O)c3ccccc3C2=O)c1C` [2-(2,3,5,6-Tetramethyl-phenyl)-isoindole-1,3-dione]: the relative activity vs aspirin in assay [1] was 0.67; in assay [2], 0.2.

`Cc1cc(C)c(C)c(N2C(=O)c3ccccc3C2=O)c1` [2-(2,3,5-Trimethyl-phenyl)-isoindole-1,3-dione]: the relative activity vs aspirin in assay [1] was 1.18; in assay [2], 0.33.

For `O=C1c2ccccc2C(=O)N1c1c[nH]c(=O)[nH]c1=O` [2-(2,4-Dioxo-1,2,3,4-tetrahydro-pyrimidin-5-yl)-isoindole-1,3-dione], the results for the relative activity vs aspirin in assay [1] and in assay [2] were 3.81 and 0.44, respectively.

As for `O=C1CCN(N2C(=O)c3ccccc3C2=O)C(=O)N1` [2-(2,4-Dioxo-tetrahydro-pyrimidin-1-yl)-isoindole-1,3-dione], the results for the relative activity vs aspirin in assay [1] and in assay [2] were 0.9 and 0.6, respectively.

As to `O=C1NCCCC1N1C(=O)c2ccccc2C1=O` (centres undefined) [2-(2-Oxo-piperidin-3-yl)-isoindole-1,3-dione], the relative activity vs aspirin in assay [1] is 1.21; in assay [2], 0.85.

`Cc1cc(C)cc(-n2c(O)cc3ccccc3c2=O)c1` [2-(3,5-Dimethyl-phenyl)-4H-isoquinoline-1,3-dione]: the relative activity vs aspirin was 38.5 in assay [1] and 95.2 in assay [2].

Regarding `Cc1cc(C)cc(N2C(=O)c3ccccc3C2=O)c1` [2-(3,5-Dimethyl-phenyl)-isoindole-1,3-dione], the relative activity vs aspirin in assay [1] was 13.2; in assay [2] it was 7.4.

In the case of `COc1cc(OC)nc(-n2c(O)cc3ccccc3c2=O)n1` [2-(4,6-Dimethoxy-pyrimidin-2-yl)-4H-isoquinoline-1,3-dione], the relative activity vs aspirin was 3.57 in assay [1] and 10.2 in assay [2].

Regarding `Cc1cc(C)nc(-n2c(O)cc3ccccc3c2=O)c1` [2-(4,6-Dimethyl-pyridin-2-yl)-4H-isoquinoline-1,3-dione], the relative activity vs aspirin in assay [1] was 6.67; in assay [2] it was 12.5.

As for `Cc1cc(C)nc(-n2c(O)cc3ccccc3c2=O)n1` [2-(4,6-Dimethyl-pyrimidin-2-yl)-4H-isoquinoline-1,3-dione], the figures for the relative activity vs aspirin in assay [1] and in assay [2] were 8.33 and 3.85, respectively.

On to `COc1cc(C)nc(-n2c(O)cc3ccccc3c2=O)n1` [2-(4-Methoxy-6-methyl-pyrimidin-2-yl)-4H-isoquinoline-1,3-dione], for which the relative activity vs aspirin is 10 in assay [1] and 21.7 in assay [2].

`C[C@@]1(N2C(=O)c3cccc([N+](=O)[O-])c3C2=O)CCC(=O)NC1=O` [2-((R)-3-Methyl-2,6-dioxo-piperidin-3-yl)-4-nitro-isoindole-1,3-dione]: the figures for the relative activity vs aspirin in assay [1] and in assay [2] were 0.1 and 0.4, respectively.

With `C[C@@]1(N2C(=O)c3ccc([N+](=O)[O-])cc3C2=O)CCC(=O)NC1=O` [2-((R)-3-Methyl-2,6-dioxo-piperidin-3-yl)-5-nitro-isoindole-1,3-dione], the relative activity vs aspirin in assay [1] was 1.51; in assay [2], 0.54.

Take `C[C@@]1(N2C(=O)c3ccccc3C2=O)CCC(=O)NC1=O` [2-((R)-3-Methyl-2,6-dioxo-piperidin-3-yl)-isoindole-1,3-dione]: the relative activity vs aspirin in assay [1] was 0.73; in assay [2] it was 0.29.

With `O=C1c2ccccc2C(=O)N1CCn1ccc(=O)[nH]c1=O` [2-[2-(2,4-Dioxo-3,4-dihydro-2H-pyrimidin-1-yl)-ethyl]-isoindole-1,3-dione], the relative activity vs aspirin in assay [1] is 0.65; in assay [2], 1.23.

On to `C[C@@]1(N2C(=O)c3cccc(N)c3C2=O)CCC(=O)NC1=O` [4-Amino-2-((R)-3-methyl-2,6-dioxo-piperidin-3-yl)-isoindole-1,3-dione], for which the relative activity vs aspirin in assay [2] was 0.17.

Turning to `C[C@@]1(N2C(=O)c3ccc(N)cc3C2=O)CCC(=O)NC1=O` [5-Amino-2-((R)-3-methyl-2,6-dioxo-piperidin-3-yl)-isoindole-1,3-dione], in assay [2], the relative activity vs aspirin is 0.12.
